{"source": "patent US12083096B2", "about": "“Composition containing artesunate” (priority 2016, dated 2024)", "key": {"[1]": {"assay": "time to dissolve artesunate powder in aqueous base solution to a clear solution", "assay_type": "physicochemical", "details": "10 mg of artesunate with 5% sodium bicarbonate solution", "experimental": "The formulation was prepared prior to use by: providing artesunate; providing a solution comprising an organic base; and adding the solution to artesunate to provide the formulation. For example, the injectable formulation of the present disclosure was prepared by mixing artesunate with an aqueous solution containing a base described herein. Without wishing to be bound by theory, artesunate becomes negatively charged and dissolved. The formulation is freshly prepared immediately before use to minimize instability. In some embodiments, the injectable formulation is prepared by adding a solution of the disclosed bases to artesunate powder. The solution is about 5% glucose, normal saline, or about 5% glucose saline solution. Then the mixture is mixed gently to provide a clear injectable solution.\nThe formulation of the present disclosure is very convenient to prepare."}, "[2]": {"details": "in vivo; cited from earlier work"}, "[3]": {"details": "cited from earlier work"}, "[4]": {"details": "cited from earlier work", "remark": "listed apart in the source"}}, "data": [{"smiles": "C[C@H]1[C@H](OC(=O)CCC(=O)O)O[C@@H]2O[C@@]3(C)CC[C@H]4[C@H](C)CC[C@@H]1[C@@]24OO3", "note": "[artesunate]", "values": [{"measurement": "time needed to dissolve", "setting": "[1]", "value": "five to seven"}, {"measurement": "plasma half-life", "setting": "[2]", "value": "about 20 minutes"}, {"measurement": "solubility in organic solvents", "setting": "[3]; organic solvents, such as acetone and methanol", "value": "soluble"}, {"measurement": "solubility in water", "setting": "[3]; water", "value": "slightly soluble"}, {"measurement": "stability under basic and acidic conditions", "setting": "[4]", "value": "unstable"}]}]}
